Experimental data from ChEMBL document CHEMBL5316352, “Puromycin Prodrug Activation by Thioredoxin Reductase Overcomes Its Promiscuous Cytotoxicity” (J Med Chem, 2023).
Calls of active or inactive are those of the source. The rule behind the calls is not given here.

What was measured:
[1] = Prodrug conversion in human HepG2 cells assessed as inhibition of proteome incorporation at 1 uM pretreated with AF for 30 mins followed by compound addition; assay type: cell-based; conditions: hepg2, 1 µM
[2] = Prodrug activation in human HepG2 cells assessed as increase in rhodamine labelling at 10 uM incubated for 12 hrs by in-gel fluorescence imaging analysis; assay type: cell-based; conditions: hepg2, 12 h
[3] = Prodrug activation in human HepG2 cells assessed as increase in biotin labelling at 10 uM incubated for 12 hrs by Western blotting analysis; assay type: cell-based; conditions: hepg2, 12 h
[4] = Prodrug activation in human HepG2 cells assessed as increase in rhodamine labelling at 1 uM incubated for 12 hrs by in-gel fluorescence imaging analysis; assay type: cell-based; conditions: hepg2, 12 h
[5] = Prodrug conversion in human HepG2 cells assessed as proteome incorporation at 1 uM pretreated with AF for 30 mins followed by compound addition; assay type: ADME, cell-based; conditions: hepg2, 1 µM
[6] = Prodrug activation in human HepG2 cells assessed as increase in biotin labelling at 1 uM incubated for 12 hrs by Western blotting analysis; assay type: cell-based; conditions: hepg2, 12 h
HepG2 [7] = assay: Cytotoxicity against human HepG2 cells with high TrxR expression assessed as reduction in cell viability incubated for 48 hrs by MTT assay; assay type: functional, cell-based; conditions: HepG2, 48 h
[8] = Stability in human plasma assessed as parent compound remaining at 100 uM measured after 48 hrs by HPLC analysis; assay type: ADME, cell-free; conditions: read-out: Stability
[9] = Cytotoxicity against human HEK293T cells with low TrxR expression assessed as reduction in cell viability incubated for 48 hrs by MTT assay; assay type: toxicity, cell-based, HEK-293T
HeLa [10] = assay: Cytotoxicity against human HeLa cells with high TrxR expression assessed as reduction in cell viability incubated for 48 hrs by MTT assay; assay type: functional, cell-based
[11] = biological target: T1, Thioredoxin (Homo sapiens) (UniProt P10599); assay: (§1) Substrate activity at Trx (unknown origin) assessed as reduction in 2-((2-hydroxyethyl)disulfaneyl)ethyl ((S)-1-(((2S,3S,4R,5R)-5-(6-(dimethylamino)-9H-purin-9-yl)-4-hydroxy-2-(hydroxymethyl)tetrahydrofuran-3-yl)amino)-3-(4-methoxyphenyl)-1-oxopropan-2-yl)carbamate level by measuring absorbance at 340 nm at 150 uM in presence of NADPH
T1 sequence (whole entry): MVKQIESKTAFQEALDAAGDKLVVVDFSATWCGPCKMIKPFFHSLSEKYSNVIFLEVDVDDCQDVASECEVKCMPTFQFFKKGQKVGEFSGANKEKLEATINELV

HL-60 [12] = assay: Cytotoxicity against human HL-60 cells with low TrxR expression assessed as reduction in cell viability incubated for 48 hrs by MTT assay; assay type: functional, cell-based; conditions: HL-60, 48 h
[13] = Prodrug activation assessed as GSH mediated compound reduction by measuring absorbance at 340 nm at 150 uM in presence of NADPH
MCF7 [14] = assay: Cytotoxicity against human MCF7 cells with low TrxR expression assessed as reduction in cell viability incubated for 48 hrs by MTT assay; assay type: functional, cell-based; conditions: MCF7, 48 h
[15] = Stability of compound in PBS at pH 7.4 assessed as parent compound remaining at 100 uM measured after 48 hrs by HPLC analysis; assay type: physicochemical; conditions: read-out: Stability
[16] = Cytotoxicity against human BEAS-2B cells with low TrxR expression assessed as reduction in cell viability incubated for 48 hrs by MTT assay; assay type: toxicity, cell-based
[17] = Stability in mouse plasma assessed as parent compound remaining at 100 uM measured after 48 hrs by HPLC analysis; assay type: ADME, cell-free; conditions: read-out: Stability
[18] = Prodrug activation assessed as TrxR (unknown origin) mediated compound reduction by measuring absorbance at 340 nm at 150 uM in presence of NADPH; conditions: human
MCF7 [19] = assay: Potency index, ratio of test compound IC50 to puromycin IC50 for cytotoxicity against human MCF7 cells; assay type: functional
BEAS-2B = assay: Potency index, ratio of test compound IC50 to puromycin IC50 for cytotoxicity against human BEAS-2B cells; assay type: functional
[20] = biological target: T1, Thioredoxin (Homo sapiens); assay: as §1, with “1,2-dithiolan-4-yl” for “2-((2-hydroxyethyl)disulfaneyl)ethyl”
[21] = Prodrug activation assessed as increase in TrxR (unknown origin) mediated NADPH oxidation by measuring absorbance at 340 nm at 150 uM; conditions: human
HL-60 [22] = assay: Potency index, ratio of test compound IC50 to puromycin IC50 for cytotoxicity against human HL-60 cells; assay type: functional
HeLa [23] = assay: Potency index, ratio of test compound IC50 to puromycin IC50 for cytotoxicity against human HeLa cells; assay type: functional
HepG2 [24] = assay: Potency index, ratio of test compound IC50 to puromycin IC50 for cytotoxicity against human HepG2 cells; assay type: functional
[25] = (§2) Prodrug activation in human HeLa cell lysate expressing shTXNRD1 assessed as reduction in 1,2-dithiolan-4-yl ((S)-1-(((2S,3S,4R,5R)-5-(6-(dimethylamino)-9H-purin-9-yl)-4-hydroxy-2-(hydroxymethyl)tetrahydrofuran-3-yl)amino)-3-(4-methoxyphenyl)-1-oxopropan-2-yl)carbamate level by measuring absorbance at 340 nm at 150 uM pretreated with TrxR inhibitor AF for 30 mins followed by compound addition in presence of NADPH; assay type: ADME, subcellular
HEK-293T = assay: Potency index, ratio of test compound IC50 to puromycin IC50 for cytotoxicity against human HEK293T cells; assay type: functional
[26] = as §2, with “lysate” for “lysate expressing shTXNRD1”; assay type: ADME, subcellular
HepG2 [27] = assay: Cytotoxicity against human HepG2 cells expressing shTXNRD1 assessed as reduction in cell viability incubated for 48 hrs by MTT assay; assay type: functional, cell-based; conditions: HepG2, 48 h
HepG2 [28] = assay: Cytotoxicity against human HepG2 cells expressing shNT assessed as reduction in cell viability incubated for 48 hrs by MTT assay; assay type: functional, cell-based; conditions: HepG2, 48 h

Structure (SMILES)	remaining at 48 h, 100 µM [8]	remaining at 48 h, 100 µM [15]	remaining at 48 h, 100 µM [17]	IC50 (HepG2 [7])	IC50 at 48 h [9]	IC50 (HeLa [10])	IC50 (HL-60 [12])	IC50 (MCF7 [14])	IC50 at 48 h [16]	further results
C#CCOc1ccc(C[C@H](NC(=O)OC2CSSC2)C(=O)N[C@H]2[C@@H](O)[C@H](n3cnc4c(N(C)C)ncnc43)O[C@@H]2CO)cc1										inhibition (INH) [1]: Active; Activity [2]: Active; Activity [3]: Active
C#CCOc1ccc(C[C@H](N)C(=O)N[C@H]2[C@@H](O)[C@H](n3cnc4c(N(C)C)ncnc43)O[C@@H]2CO)cc1										Activity [4]: Active; Activity [5]: Active; Activity [6]: Active
COc1ccc(C[C@H](N)C(=O)N[C@H]2[C@@H](O)[C@H](n3cnc4c(N(C)C)ncnc43)O[C@@H]2CO)cc1 [PUROMYCIN]				1.29 µM	1.28 µM	0.9 µM	3.73 µM	1.06 µM	0.74 µM	
COc1ccc(C[C@H](NC(=O)OC2CCCC2)C(=O)N[C@H]2[C@@H](O)[C@H](n3cnc4c(N(C)C)ncnc43)O[C@@H]2CO)cc1	> 90%	> 90%	> 90%	> 40 µM	> 40 µM	> 40 µM	> 40 µM	> 40 µM	> 40 µM	Drug metabolism [18]: Metabolite_Notdetected

Further lines, with some results ahead:

remaining at 48 h, 100 µM [8]	remaining at 48 h, 100 µM [15]	remaining at 48 h, 100 µM [17]	Structure (SMILES)	IC50 (HepG2 [7])	IC50 at 48 h [9]	IC50 (HeLa [10])	IC50 (HL-60 [12])	IC50 (MCF7 [14])	IC50 at 48 h [16]	further results
29%	> 90%	42%	COc1ccc(C[C@H](NC(=O)OCCSSCCO)C(=O)N[C@H]2[C@@H](O)[C@H](n3cnc4c(N(C)C)ncnc43)O[C@@H]2CO)cc1	9.27 µM	24.7 µM	6.84 µM	56.7 µM	27.5 µM	12.6 µM	Activity [11]: Active; Activity [13]: Active
> 90%	> 90%	> 90%	COc1ccc(C[C@H](NC(=O)OCCCCCCO)C(=O)N[C@H]2[C@@H](O)[C@H](n3cnc4c(N(C)C)ncnc43)O[C@@H]2CO)cc1	> 40 µM	> 40 µM	> 40 µM	> 40 µM	> 40 µM	> 40 µM	Drug metabolism [18]: Metabolite_Notdetected
> 90%	> 90%	> 90%	COc1ccc(C[C@H](NC(=O)OC2CSSC2)C(=O)N[C@H]2[C@@H](O)[C@H](n3cnc4c(N(C)C)ncnc43)O[C@@H]2CO)cc1	8.08 µM	19.5 µM	6.08 µM	55 µM	14.2 µM	8.42 µM	Ratio IC50 (MCF7 [19]): 13.4; Ratio IC50 (BEAS-2B): 11.4; Activity [20]: Active; Activity [21]: Active; Ratio IC50 (HL-60 [22]): 14.7; Ratio IC50 (HeLa [23]): 6.8; Ratio IC50 (HepG2 [24]): 6.3; Drug metabolism [25]: Metabolite_Notdetected; Ratio IC50 (HEK-293T): 15.2; Drug metabolism [26]: Metabolite_Notdetected; IC50 (HepG2 [27]): 11.3 µM; IC50 (HepG2 [28]): 4.88 µM
